Test results: patent publication US20260098061A1, “EPHA2-BINDING PENDING PEPTIDE AND COMPOSITION COMPRISING SAME” (PeptiDream Inc., priority 2022, published 2026)
Numbered stars: 1 amine (or outer) side, 2 acyl side, 3 side chain; on linkers, the order of the positions; unused ones are H or OH. Bridge positions count the residues as written; N and C are the ends. Square brackets hold non-standard residues; d marks the D form. Side chains are listed from the residue outwards. Peptide text beside a SMILES is read from it. * marks the point of attachment. Piperazinyl(4-CH2COOH) = O=C(O)CN1CCN(*)CC1; Trp(1-Me) = Cn1cc(C[C@H](N)C(=O)O)c2ccccc21; NMe3Pal = CN[C@@H](Cc1cccnc1)C(=O)O; NMeF = CN[C@@H](Cc1ccccc1)C(=O)O; Gly(cBu) = N[C@H](C(=O)O)C1CCC1; NMeE = CN[C@@H](CCC(=O)O)C(=O)O; Aad = N[C@@H](CCCC(=O)O)C(=O)O; Chg = N[C@H](C(=O)O)C1CCCCC1; CO = O=C([*:1])[*:2]

Biological target: T1, Recombinant Human EphA2 Fc Protein (Homo sapiens, UniProt P29317)
T1 construct: purchased Elabscience
Assay: SPR interaction analysis (Biacore T200), kinetics of peptides against EphA2
Assay type: binding
Conditions: Recombinant Human EphA2 Fc Protein captured by Human Antibody Capture kit; single-cycle kinetics; 25° C.; HBS-P+ buffer with 1% DMSO
Summary of the method: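 On a Biacore T200 at 25° C, Fc-tagged human EphA2 was captured via anti-human antibody; peptides ran as five serial dilutions in HBS-P+ pH 7.4 with 1% DMSO by single-cycle kinetics. Baseline-subtracted data fitted for ka and kd, from which KD was derived.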

Kd, < 1 nM:
C[C@H]1NC(=O)CSC[C@@H](C(N)=O)NC(=O)[C@H](CCCC(N)=O)NC(=O)[C@H]([C@@H](C)O)NC(=O)[C@H](Cc2cn(C)c3ccccc23)NC(=O)[C@H](CCCCNC(=O)N2CCN(CC(=O)O)CC2)NC(=O)[C@H](Cc2cn(C)c3ccccc23)NC(=O)[C@H](Cc2ccccc2)N(C)C(=O)[C@H](CCCC(N)=O)NC(=O)[C@H](C2CCCCC2)NC(=O)[C@H](CC(N)=O)NC(=O)[C@H](Cc2cccnc2)N(C)C1=O [PDC_EphA2-00010005, da-Me3Py-N-Chg-Hgn-MeF-W1Me-KCOpipzaa-W1Me-T-Hgn-C-NH2] ({CH2CO}-[dA][NMe3Pal]N[Chg][Aad](NH2)[NMeF][Trp(1-Me)]K([CO-Piperazinyl(4-CH2COOH)])[Trp(1-Me)]T[Aad](NH2)C-NH2; thioether N-12)
CC(C)C[C@@H]1NC(=O)[C@H](CC(N)=O)NC(=O)[C@H](Cc2cccnc2)N(C)C(=O)[C@@H](C)NC(=O)CSC[C@@H](C(N)=O)NC(=O)[C@H](CCCC(N)=O)NC(=O)[C@H]([C@@H](C)O)NC(=O)[C@H](Cc2cn(C)c3ccccc23)NC(=O)[C@H](CCCCNC(=O)N2CCN(CC(=O)O)CC2)NC(=O)[C@H](Cc2cn(C)c3ccccc23)NC(=O)[C@H](CCC(=O)O)N(C)C(=O)[C@H](CCCC(=O)O)NC1=O [PDC_EphA2-00010006, da-Me3Py-N-L-Hgl-MeE-W1Me-KCOpipzaa-W1Me-T-Hgn-C-NH2] ({CH2CO}-[dA][NMe3Pal]NL[Aad][NMeE][Trp(1-Me)]K([CO-Piperazinyl(4-CH2COOH)])[Trp(1-Me)]T[Aad](NH2)C-NH2; thioether N-12)
C[C@H]1NC(=O)CSC[C@@H](C(N)=O)NC(=O)[C@H](CCCC(N)=O)NC(=O)[C@H]([C@@H](C)O)NC(=O)[C@H](Cc2cn(C)c3ccccc23)NC(=O)[C@H](CCCCNC(=O)N2CCN(CC(=O)O)CC2)NC(=O)[C@H](Cc2cn(C)c3ccccc23)NC(=O)[C@H](CCC(=O)O)N(C)C(=O)[C@H](CCCC(=O)O)NC(=O)[C@H](C2CCC2)NC(=O)[C@H](CC(N)=O)NC(=O)[C@H](Cc2cccnc2)N(C)C1=O [PDC_EphA2-00010007, da-Me3Py-N-Cbg-Hgl-MeE-W1Me-KCOpipzaa-W1Me-T-Hgn-C-NH2] ({CH2CO}-[dA][NMe3Pal]N[Gly(cBu)][Aad][NMeE][Trp(1-Me)]K([CO-Piperazinyl(4-CH2COOH)])[Trp(1-Me)]T[Aad](NH2)C-NH2; thioether N-12)
CC(C)C[C@@H]1NC(=O)[C@H](CC(N)=O)NC(=O)[C@H](Cc2cccnc2)N(C)C(=O)[C@@H](C)NC(=O)CSC[C@@H](C(N)=O)NC(=O)[C@H](CCCC(N)=O)NC(=O)[C@H]([C@@H](C)O)NC(=O)[C@H](Cc2cn(C)c3ccccc23)NC(=O)[C@H](CCCCNC(=O)N2CCN(CC(=O)O)CC2)NC(=O)[C@H](Cc2cn(C)c3ccccc23)NC(=O)[C@H](CCC(=O)O)N(C)C(=O)[C@H](CCCC(N)=O)NC1=O [PDC_EphA2-00010008, da-Me3Py-N-L-Hgn-MeE-W1Me-KCOpipzaa-W1Me-T-Hgn-C-NH2] ({CH2CO}-[dA][NMe3Pal]NL[Aad](NH2)[NMeE][Trp(1-Me)]K([CO-Piperazinyl(4-CH2COOH)])[Trp(1-Me)]T[Aad](NH2)C-NH2; thioether N-12)
C[C@H]1NC(=O)CSC[C@@H](C(N)=O)NC(=O)[C@H](CCCC(N)=O)NC(=O)[C@H]([C@@H](C)O)NC(=O)[C@H](Cc2cn(C)c3ccccc23)NC(=O)[C@H](CCCCNC(=O)N2CCN(CC(=O)O)CC2)NC(=O)[C@H](Cc2cn(C)c3ccccc23)NC(=O)[C@H](CCC(=O)O)N(C)C(=O)[C@H](CCCC(N)=O)NC(=O)[C@H](C2CCC2)NC(=O)[C@H](CC(N)=O)NC(=O)[C@H](Cc2cccnc2)N(C)C1=O [PDC_EphA2-00010009, da-Me3Py-N-Cbg-Hgn-MeE-W1Me-KCOpipzaa-W1Me-T-Hgn-C-NH2] ({CH2CO}-[dA][NMe3Pal]N[Gly(cBu)][Aad](NH2)[NMeE][Trp(1-Me)]K([CO-Piperazinyl(4-CH2COOH)])[Trp(1-Me)]T[Aad](NH2)C-NH2; thioether N-12)
